Tested on: corneal endothelial cell monolayer
Assay: Corneal endothelial barrier function: CF permeation through cultured corneal endothelial cell monolayer on permeable collagen membrane
Format: cell-based, male white rabbits
Conditions: result in words; effect grows with increasing concentration of substance (I) in the test solution
Protocol: The eyeballs of male white rabbits were enucleated and in a culture medium prepared by adding 10 % fetal calf serum to Dulbecco's Modified MEM (trademark: Dulbecco's Modified Eagle Medium "Nissui" 2, Nissui Pharmaceutical), (hereinafter referred to as DMEM), the cornea was cut out along the corneosclerai limbus with a pair of scissors. From each of the isolated corneal specimens (8 eyes), the endothelium with Descemet's membrane was peeled off, shorn into small pieces, and seeded with about 5 ml of DMEM in a 75 cm^2 culture flask (trademark: Nunclon Tissue Culture Flask 147589; manufactured by Nunc). After adhesion of the cells to the bottom of the flask, about 20 ml of DMEM was added and the cells were cultured for about 7 days until the growth on the internal wall of the flask became confluent. During this period, the medium was replaced with fresh one every 3 days. After completion of culture, the cells were digested with 5 ml of EDTA- trypsin (a phosphate buffer containing 0.01 % of EDTA and 0.125 % of trypsin and not containing calcium or magnesium ion) and, then, mixed with a sufficient quantity of DMEM to terminate the digestion. The digest was centrifuged at 1000 rpm for 2 minutes and the cells were then collected. The harvested cells were re-suspended in DMEM and filtered through a […] nylon filter to remove Descemet's membrane, leaving an exclusive suspension of cells. […]

In the case of O=C1O[C@H]([C@@H](O)CO)C(O)=C1OP(=O)(O)O [substance (I)], the “permeation of CF through the cultured corneal endothelial cell monolayer” value is reported as “inhibits the permeation of CF”.
